Measurements from PubChem BioAssay (NCI).
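The compound was tested at five concentrations on cells cultured in 96-well plates, with a 48-hour exposure period. At the TGI there is no net growth.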

Experiments:
Assay in all cases: NCI anticancer screen, dose series, 48 h
786-0 renal = system: 786-0 renal
A498 renal = system: A498 renal
A549 NSCLC = system: A549 NSCLC
ACHN renal = system: ACHN renal
CAKI-1 renal = system: CAKI-1 renal
CCRF-CEM leukemia = system: CCRF-CEM leukemia
COLO 205 colon = system: COLO 205 colon
DLD-1 colon = system: DLD-1 colon
DMS 273 small cell lung = system: DMS 273 small cell lung
EKVX NSCLC = system: EKVX NSCLC
HCC-2998 colon = system: HCC-2998 colon
HCT-116 colon = system: HCT-116 colon
HCT-15 colon = system: HCT-15 colon
HL-60(TB) leukemia = system: HL-60(TB) leukemia
HOP-18 NSCLC = system: HOP-18 NSCLC
HOP-62 NSCLC = system: HOP-62 NSCLC
HT29 colon = system: HT29 colon
IGROV1 ovarian = system: IGROV1 ovarian
K-562 leukemia = system: K-562 leukemia
KM12 colon = system: KM12 colon
KM20L2 colon = system: KM20L2 colon
LOX IMVI melanoma = system: LOX IMVI melanoma
LXFL 529 NSCLC = system: LXFL 529 NSCLC
M14 melanoma = system: M14 melanoma
M19-MEL melanoma = system: M19-MEL melanoma
MALME-3M melanoma = system: MALME-3M melanoma
MOLT-4 leukemia = system: MOLT-4 leukemia
NCI-H226 lung = system: NCI-H226 lung
NCI-H23 lung = system: NCI-H23 lung
NCI-H460 lung = system: NCI-H460 lung
NCI-H522 lung = system: NCI-H522 lung
OVCAR-3 ovarian = system: OVCAR-3 ovarian
OVCAR-4 ovarian = system: OVCAR-4 ovarian
OVCAR-5 ovarian = system: OVCAR-5 ovarian
OVCAR-8 ovarian = system: OVCAR-8 ovarian
RXF 393 renal = system: RXF 393 renal
SF-268 CNS = system: SF-268 CNS
SF-295 CNS = system: SF-295 CNS
SF-539 CNS = system: SF-539 CNS
SK-MEL-2 melanoma = system: SK-MEL-2 melanoma
SK-MEL-28 melanoma = system: SK-MEL-28 melanoma
SK-MEL-5 melanoma = system: SK-MEL-5 melanoma
SK-OV-3 ovarian = system: SK-OV-3 ovarian
SN12C renal = system: SN12C renal
SNB-19 CNS = system: SNB-19 CNS
SNB-75 CNS = system: SNB-75 CNS
SNB-78 CNS = system: SNB-78 CNS
SR leukemia = system: SR leukemia
SW-620 colon = system: SW-620 colon
TK-10 renal = system: TK-10 renal
U251 CNS = system: U251 CNS
UACC-257 melanoma = system: UACC-257 melanoma
UACC-62 melanoma = system: UACC-62 melanoma
UO-31 renal = system: UO-31 renal
XF 498 CNS = system: XF 498 CNS
DMS 114 small cell lung = system: DMS 114 small cell lung
RPMI-8226 leukemia = system: RPMI-8226 leukemia
HOP-92 NSCLC = system: HOP-92 NSCLC

## C[O+]=c1cccc2ssnc1-2
786-0 renal
  TGI: > 100 µM
A498 renal
  TGI: > 100 µM
A549 NSCLC
  TGI: > 100 µM
ACHN renal
  TGI: > 100 µM
CAKI-1 renal
  TGI: > 100 µM
CCRF-CEM leukemia
  TGI: > 10 µM
COLO 205 colon
  TGI: > 100 µM
DLD-1 colon
  TGI: > 100 µM
DMS 273 small cell lung
  TGI: > 100 µM
EKVX NSCLC
  TGI: > 100 µM
HCC-2998 colon
  TGI: > 100 µM
HCT-116 colon
  TGI: > 100 µM
HCT-15 colon
  TGI: > 100 µM
HL-60(TB) leukemia
  TGI: 69.6 µM
HOP-18 NSCLC
  TGI: > 100 µM
HOP-62 NSCLC
  TGI: > 100 µM
HT29 colon
  TGI: > 100 µM
IGROV1 ovarian
  TGI: > 100 µM
K-562 leukemia
  TGI: 91.6 µM
KM12 colon
  TGI: > 100 µM
KM20L2 colon
  TGI: > 100 µM
LOX IMVI melanoma
  TGI: > 100 µM
LXFL 529 NSCLC
  TGI: > 100 µM
M14 melanoma
  TGI: > 100 µM
M19-MEL melanoma
  TGI: 69.3 µM
MALME-3M melanoma
  TGI: > 100 µM
MOLT-4 leukemia
  TGI: 96.1 µM
NCI-H226 lung
  TGI: > 100 µM
NCI-H23 lung
  TGI: > 100 µM
NCI-H460 lung
  TGI: > 100 µM
NCI-H522 lung
  TGI: > 10 µM
OVCAR-3 ovarian
  TGI: > 100 µM
OVCAR-4 ovarian
  TGI: > 100 µM
OVCAR-5 ovarian
  TGI: > 100 µM
OVCAR-8 ovarian
  TGI: 74.1 µM
RXF 393 renal
  TGI: > 100 µM
SF-268 CNS
  TGI: > 100 µM
SF-295 CNS
  TGI: > 100 µM
SF-539 CNS
  TGI: > 100 µM
SK-MEL-2 melanoma
  TGI: > 100 µM
SK-MEL-28 melanoma
  TGI: > 100 µM
SK-MEL-5 melanoma
  TGI: 58.7 µM
SK-OV-3 ovarian
  TGI: > 100 µM
SN12C renal
  TGI: > 100 µM
SNB-19 CNS
  TGI: > 100 µM
SNB-75 CNS
  TGI: > 100 µM
SNB-78 CNS
  TGI: > 100 µM
SR leukemia
  TGI: 64.8 µM
SW-620 colon
  TGI: 70.6 µM
TK-10 renal
  TGI: > 100 µM
U251 CNS
  TGI: > 10 µM
UACC-257 melanoma
  TGI: 88.5 µM
UACC-62 melanoma
  TGI: 58.8 µM
UO-31 renal
  TGI: 98 µM
XF 498 CNS
  TGI: 43.1 µM

## OC[C@@H]1CC#C/C=C\C#CC[C@@H]1CO
786-0 renal
  TGI: > 100 µM
CAKI-1 renal
  TGI: > 100 µM
COLO 205 colon
  TGI: > 100 µM
DLD-1 colon
  TGI: > 100 µM
DMS 114 small cell lung
  TGI: > 100 µM
EKVX NSCLC
  TGI: > 100 µM
HCC-2998 colon
  TGI: > 100 µM
HCT-116 colon
  TGI: > 100 µM
HCT-15 colon
  TGI: > 100 µM
HL-60(TB) leukemia
  TGI: > 100 µM
HOP-18 NSCLC
  TGI: > 100 µM
HOP-62 NSCLC
  TGI: > 100 µM
HT29 colon
  TGI: > 100 µM
IGROV1 ovarian
  TGI: > 100 µM
K-562 leukemia
  TGI: > 100 µM
KM12 colon
  TGI: > 100 µM
M14 melanoma
  TGI: > 100 µM
M19-MEL melanoma
  TGI: > 100 µM
MALME-3M melanoma
  TGI: > 100 µM
MOLT-4 leukemia
  TGI: > 100 µM
NCI-H23 lung
  TGI: > 100 µM
OVCAR-3 ovarian
  TGI: > 100 µM
OVCAR-4 ovarian
  TGI: > 100 µM
OVCAR-5 ovarian
  TGI: > 100 µM
OVCAR-8 ovarian
  TGI: > 100 µM
RPMI-8226 leukemia
  TGI: > 100 µM
RXF 393 renal
  TGI: > 100 µM
SF-295 CNS
  TGI: > 100 µM
SF-539 CNS
  TGI: > 100 µM
SK-MEL-2 melanoma
  TGI: > 100 µM
SK-MEL-28 melanoma
  TGI: > 100 µM
SK-MEL-5 melanoma
  TGI: > 100 µM
SK-OV-3 ovarian
  TGI: > 100 µM
SNB-19 CNS
  TGI: > 100 µM
SNB-78 CNS
  TGI: > 100 µM
TK-10 renal
  TGI: > 100 µM
U251 CNS
  TGI: > 100 µM
UO-31 renal
  TGI: > 100 µM
XF 498 CNS
  TGI: 6.99 µM

## CSc1nc2c(nc(N)n2C2OC(CO)C(O)C(O)C2O)c(=O)n1C (configuration not stated)
786-0 renal
  TGI: > 100 µM
A498 renal
  TGI: > 100 µM
A549 NSCLC
  TGI: > 100 µM
ACHN renal
  TGI: > 100 µM
CAKI-1 renal
  TGI: > 100 µM
CCRF-CEM leukemia
  TGI: > 100 µM
COLO 205 colon
  TGI: > 100 µM
DLD-1 colon
  TGI: > 100 µM
DMS 114 small cell lung
  TGI: > 100 µM
EKVX NSCLC
  TGI: > 100 µM
HCC-2998 colon
  TGI: > 100 µM
HCT-116 colon
  TGI: > 100 µM
HL-60(TB) leukemia
  TGI: > 100 µM
HOP-18 NSCLC
  TGI: > 100 µM
HOP-62 NSCLC
  TGI: > 100 µM
HOP-92 NSCLC
  TGI: > 100 µM
HT29 colon
  TGI: > 100 µM
IGROV1 ovarian
  TGI: > 100 µM
K-562 leukemia
  TGI: > 100 µM
KM12 colon
  TGI: > 100 µM
KM20L2 colon
  TGI: > 100 µM
LOX IMVI melanoma
  TGI: > 100 µM
LXFL 529 NSCLC
  TGI: > 100 µM
M14 melanoma
  TGI: > 100 µM
M19-MEL melanoma
  TGI: > 100 µM
MALME-3M melanoma
  TGI: > 100 µM
MOLT-4 leukemia
  TGI: > 100 µM
NCI-H226 lung
  TGI: > 100 µM
NCI-H23 lung
  TGI: > 100 µM
NCI-H460 lung
  TGI: > 100 µM
NCI-H522 lung
  TGI: > 100 µM
OVCAR-3 ovarian
  TGI: > 100 µM
OVCAR-4 ovarian
  TGI: > 100 µM
OVCAR-8 ovarian
  TGI: > 100 µM
RXF 393 renal
  TGI: > 100 µM
SF-268 CNS
  TGI: > 100 µM
SF-295 CNS
  TGI: > 100 µM
SF-539 CNS
  TGI: > 100 µM
SK-MEL-28 melanoma
  TGI: > 100 µM
SK-MEL-5 melanoma
  TGI: > 100 µM
SK-OV-3 ovarian
  TGI: > 100 µM
SN12C renal
  TGI: > 100 µM
SNB-19 CNS
  TGI: > 100 µM
SNB-75 CNS
  TGI: > 100 µM
SNB-78 CNS
  TGI: > 100 µM
SR leukemia
  TGI: > 100 µM
SW-620 colon
  TGI: > 100 µM
TK-10 renal
  TGI: > 100 µM
U251 CNS
  TGI: > 100 µM
UACC-257 melanoma
  TGI: > 100 µM
UACC-62 melanoma
  TGI: > 100 µM
UO-31 renal
  TGI: > 100 µM
XF 498 CNS
  TGI: > 100 µM
